Data on three compounds can be found in patent publication US20250188080A1, “IMIDAZOLONYLQUINOLINE COMPOUNDS AND THERAPEUTIC USES THEREOF” (Merck Patent GmbH, priority 2019, published 2025).

Usually IC50 stands for the concentration that gives 50% inhibition. Lower therefore signals greater potency. The solubility is how much of the substance goes into solution per volume.

≈ marks a conversion by molar mass, not a printed value. Like-named read-outs stand apart in the source and are kept apart here.

Data set [1] concerns the target T1, human phosphodiesterase-4D2 (Homo sapiens, UniProt Q08499).
T1 construct: purchased Cerep 4077; host or cells: Sf9 cells
Nature of the data set: PDE4D2 assay (Cerep). It counts as biochemical. On the procedure: A commercially available assay of Cerep was used (Catalog ref. 4077; SOP no 1C1045) The assay is designed to evaluate the effects of test compounds on the activity of the human phosphodiesterase-4D2 quantified by measuring the formation of 5′AMP from cAMP using a human recombinant enzyme expressed in Sf9 cells.
The test compound, reference compound or water (control) are added to a buffer containing 40 mM Tris/HCl (pH 7.4) and 8 mM MgCl2, 450 nM cAMP and 0.0125 μCi [^3H]cAMP.
Thereafter, the reaction is initiated by addition of the enzyme (about 1.5 U) and the mixture is incubated for 20 min at 22° C.
For basal control measurements, the enzyme is omitted from the reaction mixture.
Following incubation SPA (scintillation proximity assay) beads are added.
After 30 min at 22° C. under shaking, the amount of [^3H]5′AMP is quantified with a scintillation counter (Topcount, Packard).
The results are expressed as a percent inhibition of the control enzyme activity.
The standard inhibitory reference compound is Ro 20-1724, which is tested in each experiment at several concentrations to obtain an inhibition curve from which its IC50 value is calculated.

Data set [2] is described as follows: Solubility in biological buffer solutions. It counts as physicochemical. On the procedure:
Levels of dissolved compound/form were analysed by HPLC, with the following conditions: • Column: Chromolith RP-18e 100-3 mm • Solvent A: water/formic acid (999:1; v/v) • Solvent B: acetonitrile/formic acid (999:1; v/v) • Injection volume: 5 μL • Column temperature: 37° C. • HPLC-Gradient: […]

In a further data set the target is T2, human ATR/ATRIP (Homo sapiens, UniProt Q13535).
T2 construct: human ATR, full length, GenBank ID: NM_001184.3; host or cells: mammalian cell line (ATR/ATRIP co-expressed); Sf21 insect cells (p53)
T2 sequence (Q13535 whole entry): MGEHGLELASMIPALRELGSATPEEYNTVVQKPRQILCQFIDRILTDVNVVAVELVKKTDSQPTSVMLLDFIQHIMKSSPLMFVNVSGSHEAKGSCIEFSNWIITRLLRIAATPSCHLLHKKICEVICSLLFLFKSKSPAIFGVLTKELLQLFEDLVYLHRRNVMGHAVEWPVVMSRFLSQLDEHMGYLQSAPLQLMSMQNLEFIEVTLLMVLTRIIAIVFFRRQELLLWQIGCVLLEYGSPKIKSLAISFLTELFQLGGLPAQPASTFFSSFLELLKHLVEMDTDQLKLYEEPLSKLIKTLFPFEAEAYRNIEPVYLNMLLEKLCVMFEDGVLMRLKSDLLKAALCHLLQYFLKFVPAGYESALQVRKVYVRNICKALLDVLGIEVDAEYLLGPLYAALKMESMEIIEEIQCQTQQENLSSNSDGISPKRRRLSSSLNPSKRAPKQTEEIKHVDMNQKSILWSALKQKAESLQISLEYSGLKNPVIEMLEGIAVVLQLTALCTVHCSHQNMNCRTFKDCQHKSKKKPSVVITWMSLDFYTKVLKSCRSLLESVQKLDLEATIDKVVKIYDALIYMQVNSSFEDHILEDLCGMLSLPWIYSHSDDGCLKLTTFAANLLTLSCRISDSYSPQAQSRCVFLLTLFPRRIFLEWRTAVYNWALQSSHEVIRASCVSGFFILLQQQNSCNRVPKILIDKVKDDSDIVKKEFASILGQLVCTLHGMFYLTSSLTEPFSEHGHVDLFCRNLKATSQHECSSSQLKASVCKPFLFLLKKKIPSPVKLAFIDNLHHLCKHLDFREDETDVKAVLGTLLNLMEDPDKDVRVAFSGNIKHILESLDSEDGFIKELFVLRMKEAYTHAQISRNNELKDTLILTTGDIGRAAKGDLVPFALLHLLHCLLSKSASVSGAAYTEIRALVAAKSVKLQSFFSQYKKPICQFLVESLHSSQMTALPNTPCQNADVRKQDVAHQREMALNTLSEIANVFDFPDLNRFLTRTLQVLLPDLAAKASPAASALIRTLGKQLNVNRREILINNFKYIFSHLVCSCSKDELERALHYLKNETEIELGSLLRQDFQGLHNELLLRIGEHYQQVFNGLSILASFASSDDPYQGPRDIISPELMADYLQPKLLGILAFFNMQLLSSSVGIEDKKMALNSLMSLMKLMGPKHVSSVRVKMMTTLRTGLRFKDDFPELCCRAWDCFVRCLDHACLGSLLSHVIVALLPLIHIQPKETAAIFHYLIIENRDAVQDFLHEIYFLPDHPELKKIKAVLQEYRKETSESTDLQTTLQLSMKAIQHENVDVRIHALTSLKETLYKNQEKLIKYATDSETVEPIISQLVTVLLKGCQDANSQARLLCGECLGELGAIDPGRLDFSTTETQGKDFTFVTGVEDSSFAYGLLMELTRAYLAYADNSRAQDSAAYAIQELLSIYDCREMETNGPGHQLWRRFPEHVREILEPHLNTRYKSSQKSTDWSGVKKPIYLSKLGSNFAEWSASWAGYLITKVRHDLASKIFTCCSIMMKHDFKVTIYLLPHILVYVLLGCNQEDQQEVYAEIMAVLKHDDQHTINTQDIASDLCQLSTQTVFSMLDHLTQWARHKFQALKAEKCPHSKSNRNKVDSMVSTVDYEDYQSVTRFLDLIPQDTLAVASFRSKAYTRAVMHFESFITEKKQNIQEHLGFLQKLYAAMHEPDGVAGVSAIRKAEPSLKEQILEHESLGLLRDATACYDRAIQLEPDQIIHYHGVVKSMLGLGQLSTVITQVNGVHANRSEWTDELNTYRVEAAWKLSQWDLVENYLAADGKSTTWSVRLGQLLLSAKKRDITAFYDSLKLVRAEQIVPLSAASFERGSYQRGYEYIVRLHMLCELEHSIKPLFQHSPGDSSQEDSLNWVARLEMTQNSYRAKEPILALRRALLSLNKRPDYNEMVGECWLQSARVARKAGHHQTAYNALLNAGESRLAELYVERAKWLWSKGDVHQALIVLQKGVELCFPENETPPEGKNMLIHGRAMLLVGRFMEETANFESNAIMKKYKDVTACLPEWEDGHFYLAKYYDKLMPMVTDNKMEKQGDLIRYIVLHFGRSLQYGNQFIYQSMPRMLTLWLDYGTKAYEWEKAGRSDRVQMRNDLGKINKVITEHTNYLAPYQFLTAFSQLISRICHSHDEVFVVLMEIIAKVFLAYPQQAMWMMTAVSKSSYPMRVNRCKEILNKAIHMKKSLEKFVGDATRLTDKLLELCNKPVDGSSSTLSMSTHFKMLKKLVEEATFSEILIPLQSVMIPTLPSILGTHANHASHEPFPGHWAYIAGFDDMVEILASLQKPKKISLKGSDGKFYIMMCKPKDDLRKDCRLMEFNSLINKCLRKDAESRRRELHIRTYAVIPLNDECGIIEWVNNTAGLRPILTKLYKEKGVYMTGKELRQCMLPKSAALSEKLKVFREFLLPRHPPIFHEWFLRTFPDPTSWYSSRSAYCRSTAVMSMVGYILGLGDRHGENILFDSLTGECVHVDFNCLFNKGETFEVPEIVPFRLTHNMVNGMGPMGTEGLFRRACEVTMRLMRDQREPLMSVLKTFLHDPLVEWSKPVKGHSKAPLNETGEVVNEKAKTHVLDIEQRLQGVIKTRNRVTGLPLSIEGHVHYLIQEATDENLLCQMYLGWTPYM
T2 sequence (Q8WXE1 whole entry partner): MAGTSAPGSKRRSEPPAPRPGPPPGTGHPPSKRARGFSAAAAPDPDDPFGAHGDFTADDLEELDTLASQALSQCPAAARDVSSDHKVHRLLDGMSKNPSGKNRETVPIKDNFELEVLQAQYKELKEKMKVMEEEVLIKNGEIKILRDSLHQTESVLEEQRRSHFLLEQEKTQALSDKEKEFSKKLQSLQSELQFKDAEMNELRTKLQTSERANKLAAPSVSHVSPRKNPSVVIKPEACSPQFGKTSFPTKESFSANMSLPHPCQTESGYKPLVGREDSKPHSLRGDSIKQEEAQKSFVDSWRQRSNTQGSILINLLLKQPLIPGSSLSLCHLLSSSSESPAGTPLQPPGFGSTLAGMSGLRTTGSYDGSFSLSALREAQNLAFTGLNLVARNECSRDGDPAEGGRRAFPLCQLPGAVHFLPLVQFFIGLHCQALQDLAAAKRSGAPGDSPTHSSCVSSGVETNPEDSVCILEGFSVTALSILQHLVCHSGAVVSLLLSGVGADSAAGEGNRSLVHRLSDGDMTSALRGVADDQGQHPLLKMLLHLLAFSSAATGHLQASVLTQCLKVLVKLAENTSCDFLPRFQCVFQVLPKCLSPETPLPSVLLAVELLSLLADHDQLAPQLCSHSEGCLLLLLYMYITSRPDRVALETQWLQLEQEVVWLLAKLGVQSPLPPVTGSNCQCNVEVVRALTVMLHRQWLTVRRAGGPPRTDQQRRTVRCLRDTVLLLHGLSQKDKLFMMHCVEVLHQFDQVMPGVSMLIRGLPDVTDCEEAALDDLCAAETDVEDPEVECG
Nature of the data set: ATR/ATRIP kinase assay. It counts as biochemical. On the procedure: The IC50 value was determined by an ATR/ATRIP enzymatic assay. The assay comprises two steps: the enzymatic reaction and the detection step. First, a mixture of ATR/ATRIP protein (Ataxia Telangiectasia and Rad3-related protein/ATR interacting protein), the compound in question at different concentrations, p53 as substrate protein and adenosine triphosphate (ATP) are incubated in assay buffer. ATR phosphorylates p53 at Ser15 and other residues. The amount of phosphorylated p53 is then detected using specific antibodies and the TR-FRET assay technology.
In detail: The ATR/ATRIP enzymatic assay is performed as a TR-FRET-(HTRF™, Cisbio Bioassays) based 384-well assay. In a first step, purified human recombinant ATR/ATRIP (human ATR, full length, GenBank ID: NM_001184.3, and human ATRIP, full length, GenBank ID AF451323.1, co-expressed in a mammalian cell line) is incubated in assay buffer for 15 minutes at 22° C. with test compound at different concentrations or without test compound (as a negative control). The assay buffer contains 25 mM HEPES pH 8.0, 10 mM Mg(CH3COO)2, 1 mM MnCl2, 0.1% BSA, 0.01% Brij® 35, and 5 mM dithiothreitol (DTT). […] The generation of phosphorylated p53 as a result of the ATR mediated reaction in the presence of ATP is detected by using specific antibodies [labeled with the fluorophores europium (Eu) as donor and d2 as acceptor (Cisbio Bioassays)] enabling FRET. […] Following signal development for 2 h the plates are analyzed in an EnVision (PerkinElmer) microplate reader using the TRF mode with laser excitation. Upon excitation of the donor europium at 340 nm the emitted fluorescence light of the acceptor d2 at 665 nm as well as from the donor Eu at 615 nm are measured. The amount of phosphorylated p53 is directly proportional to the ratio of the amounts of emitted light i.e. the ratio of the relative fluorescence units (rfu) at 665 nm and 615 nm. […] In particular, IC50 values are determined in the usual manner by fitting a dose-response curve to the data points using nonlinear regression analysis.

For data set [3], the system named is pDNA-PK (Cellular mechanistic DNA-PK, HCT-116). Put plainly: pDNA-PK cellular assay. It counts as cell-based, human. The following applies: HCT-116, 10 μM bleomycin. On the procedure:
HCT116 cells are cultured in MEM alpha medium with 10% fetal calf serum and 2 mM glutamine at 37° C. and 10% CO2. The cells were detached from the bottom of the culture vessels using trypsin/EDTA, centrifuged in centrifuge tubes, taken up in fresh medium and the cell density was determined. 100,000 cells were seeded in 1 ml of culture medium per well of a 24-well cell culture plate and cultured overnight. The next day, 10 μM bleomycin (DNA intercalator and DNA double-strand breaker inducer) and the test substances in fresh culture medium were added to the cells and cultured for a further six hours. Cell lysis was then performed and the cell lysates were spotted on a 96-well ELISA plate (Sigma-Aldrich WH0005591M2: total DNA-PK, Abcam ab18192 or Epitomics EM09912: phospho-serine 2056 DNA-PK), which was blocked and coated with DNA-PK specific antibody, and incubated at 4° C. overnight. Subsequently, the 96-well ELISA plates were treated with a detection antibody (Abcam ab79444: total DNA-PK) and a streptavidin-HRP conjugate. The development of the enzymatic reaction was carried out using a chemiluminescent reagent, the chemiluminescence was measured using the Mithras LB940. The signals with the phospho-DNA-PK specific antibody were normalized to the signal with the antibody against the whole protein DNA-PKc. […] The DMSO control was used as blank.

[4] abbreviates: FaSSIF, pH 6.5, fassif, FaSSiF, pH 6.5, read-out: Solubility FaSSiF, pH 6.5.
The mark [5] stands for this setting: FeSSIF, pH 5, fessif, FeSSiF, pH 5.0, read-out: Solubility FeSSiF, pH 5.0.
Where [6] appears, read: PBS, pH 7.4, aqueous buffer, PBS, pH 7.4, read-out: Solubility PBS, pH 7.4.

T1 sequence (Q08499 303-809 limits assumed): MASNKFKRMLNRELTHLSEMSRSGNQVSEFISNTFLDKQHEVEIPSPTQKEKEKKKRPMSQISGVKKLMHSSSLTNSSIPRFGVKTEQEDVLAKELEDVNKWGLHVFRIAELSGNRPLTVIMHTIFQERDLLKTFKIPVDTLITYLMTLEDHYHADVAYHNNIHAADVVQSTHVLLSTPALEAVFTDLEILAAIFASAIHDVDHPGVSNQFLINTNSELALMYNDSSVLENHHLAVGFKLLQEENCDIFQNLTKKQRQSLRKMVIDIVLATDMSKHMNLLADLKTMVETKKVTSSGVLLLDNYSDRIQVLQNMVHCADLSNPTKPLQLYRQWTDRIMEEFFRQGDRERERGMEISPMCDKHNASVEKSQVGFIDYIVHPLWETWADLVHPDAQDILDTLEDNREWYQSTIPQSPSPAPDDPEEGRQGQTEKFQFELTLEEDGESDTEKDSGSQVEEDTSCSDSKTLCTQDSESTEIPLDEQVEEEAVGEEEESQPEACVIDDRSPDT

As to `COc1cc2ncc3c(c2cc1-c1cn(C)nc1C)n(-c1c(F)cncc1OC)c(=O)n3C` (single isomer, unassigned) [Compound 1, 8-(1,3-Dimethyl-1H-pyrazol-4-yl)-1-(Sa)-(3-fluoro-5-methoxy-pyridin-4-yl)-7-methoxy-3-methyl-1,3-dihydro-imidazo[4,5-c]quinolin-2-one], the results for the IC50 (in data set [1]; against human ATR/ATRIP; in data set [3] (Homo sapiens)) were 3 µM, 10 µM and more than 30 µM, respectively. The values for the solubility in data set [2] (setting [4]), in data set [2] (setting [5]) and in data set [2] (setting [6]) were 242 µg/mL (≈ 540 µM), 731 µg/mL (≈ 1630 µM) and approximately 100 µg/mL (≈ 223 µM), respectively.

In the case of `COc1cc2ncc3c(c2cc1-c1cn(C)nc1C)n(-c1c(F)cncc1OC)c(=O)n3C` (single isomer, unassigned) [Compound 2, 8-(1,3-Dimethyl-1H-pyrazol-4-yl)-1-(Ra)-(3-fluoro-5-methoxy-pyridin-4-yl)-7-methoxy-3-methyl-1,3-dihydro-imidazo[4,5-c]quinolin-2-one], the results for the concentration for half-maximal inhibition (IC50) (in data set [1]; at human ATR/ATRIP; in data set [3]) were 0.44 µM, more than 28 µM and more than 30 µM, respectively. The “Solubility FaSSiF, pH 6.5” value in data set [2] (FaSSiF, pH 6.5) was found to be 216 μg/ml. The “Solubility FeSSiF, pH 5.0” value in data set [2] (FeSSiF, pH 5.0) is approximately 800 μg/ml. Further, the “Solubility PBS, pH 7.4” value in data set [2] (PBS, pH 7.4) is recorded as approximately 100 μg/ml.

Regarding `COc1cc2ncc3c(c2cc1-c1cn(C)nc1C)n(-c1c(F)cncc1OC)c(=O)n3C` [Compound Y, 8-(1,3-dimethyl-1H-pyrazol-4-yl)-1-(3-fluoro-5-methoxypyridin-4-yl)-7-methoxy-3-methyl-1,3-dihydroimidazo[4,5-c]quinolin-2-one, reference compound], the IC50 is 0.6 µM in data set [1], 5.06 µM against human ATR/ATRIP and more than 30 µM in data set [3] (Homo sapiens). In addition, the solubility in data set [2] (setting [4]) was 52 µg/mL (≈ 116 µM); in data set [2] (setting [5]) it was 201 µg/mL (≈ 448 µM); in data set [2] (setting [6]), 19 µg/mL (≈ 42.4 µM).
